From patent publication US20100324829A1, “METHOD OF SELECTING HLA-DP4 LIGANDS AND THE APPLICATIONS THEREOF” (priority 2001, published 2010)
Where a chain is given by its changes, count along the chain named. Where a SMILES comes first, the peptide text is derived from it.

Assays:
Experiment in all cases: biochemical
Assay type in all cases: binding
[1] = target: T1, HLA-DP4 molecule DPA1*0103/DPB1*0402 (DP402) (Homo sapiens, UniProt P04440+P20036)
T1 construct: purified from various human B lymphocyte lines transformed with the Epstein Barr virus (EBV), which are homozygotes for DP; endogenous in cells
T1 sequence (P20036 29-260): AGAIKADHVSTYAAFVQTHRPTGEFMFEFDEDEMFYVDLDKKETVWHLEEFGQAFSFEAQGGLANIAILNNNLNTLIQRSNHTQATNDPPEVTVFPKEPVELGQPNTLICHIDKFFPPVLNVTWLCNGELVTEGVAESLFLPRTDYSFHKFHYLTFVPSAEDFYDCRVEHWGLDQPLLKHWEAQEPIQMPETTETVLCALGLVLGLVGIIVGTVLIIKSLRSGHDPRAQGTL
T1 sequence (P04440 30-258 A65V/A84D/A85E): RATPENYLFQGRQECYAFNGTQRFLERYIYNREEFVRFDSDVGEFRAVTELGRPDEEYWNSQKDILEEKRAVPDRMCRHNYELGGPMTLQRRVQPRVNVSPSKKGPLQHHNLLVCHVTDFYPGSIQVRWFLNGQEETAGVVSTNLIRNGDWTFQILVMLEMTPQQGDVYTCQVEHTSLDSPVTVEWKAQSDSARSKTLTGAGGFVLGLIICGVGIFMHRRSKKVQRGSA

[2] = target: T2, HLA-DP4 molecule DPA1*0103/DPB1*0401 (DP401) (Homo sapiens, UniProt P04440+P20036)
T2 construct: purified from various human B lymphocyte lines transformed with the Epstein Barr virus (EBV), which are homozygotes for DP; endogenous in cells
T2 sequence (P20036 29-260): T1 sequence (P20036 29-260)
T2 sequence (P04440 30-258): T1 sequence (P04440 30-258 A65V/A84D/A85E) with V36A, D55A, E56A

[3] = target: T3, HLA-DP4 molecule DPA1*0103/DPB1*0402 (DP402) (Homo sapiens, UniProt P04440+P20036, A65V/A84D/A85E/L207M); conditions: IC50 (nM) 402, peptides derived from UNK1; tracer bUNK 1-17 10 nM, pH 5, 24 h
T3 construct: purified from various human B lymphocyte lines transformed with the Epstein Barr virus (EBV), which are homozygotes for DP; endogenous in cells
T3 sequence (P20036 29-260): T1 sequence (P20036 29-260)
T3 sequence (P04440 30-258 A65V/A84D/A85E): T1 sequence (P04440 30-258 A65V/A84D/A85E)

KYFAATQFEPKAA [UNK L13K]
Loss of binding to DP*0402 (ratio of the IC50 values for the mutant peptide and for the UNK1 peptide) [1]: 70
Loss of binding to DP*0401 (ratio of the IC50 values for the mutant peptide and for the UNK1 peptide) [2]: 81

KYFAATQFEPFAA [UNK L13F]
Loss of binding to DP*0402 (ratio of the IC50 values for the mutant peptide and for the UNK1 peptide) [1]: 4
Loss of binding to DP*0401 (ratio of the IC50 values for the mutant peptide and for the UNK1 peptide) [2]: 1.7

KYFAAKQFEPLAA [UNK T8K]
Loss of binding to DP*0402 (ratio of the IC50 values for the mutant peptide and for the UNK1 peptide) [1]: 3.6
Loss of binding to DP*0401 (ratio of the IC50 values for the mutant peptide and for the UNK1 peptide) [2]: 31

CC(C)C[C@H](NC(=O)[C@H](CCCNC(=N)N)NC(=O)[C@H](C)NC(=O)[C@H](C)NC(=O)[C@H](CC(C)C)NC(=O)[C@@H]1CCCN1C(=O)[C@H](CCC(=O)O)NC(=O)[C@H](Cc1ccccc1)NC(=O)[C@H](CCC(N)=O)NC(=O)[C@@H](NC(=O)[C@H](C)NC(=O)[C@H](C)N)[C@@H](C)O)C(=O)O [UNK6-17] (H-AATQFEPLAARL-OH)
IC50 [3]: 6000 nM

KYTAATQFEPLAA [UNK F5T]
Loss of binding to DP*0402 (ratio of the IC50 values for the mutant peptide and for the UNK1 peptide) [1]: 126
Loss of binding to DP*0401 (ratio of the IC50 values for the mutant peptide and for the UNK1 peptide) [2]: 234

KYFAATQFEPVAA [UNK L13V]
Loss of binding to DP*0402 (ratio of the IC50 values for the mutant peptide and for the UNK1 peptide) [1]: 1.9
Loss of binding to DP*0401 (ratio of the IC50 values for the mutant peptide and for the UNK1 peptide) [2]: 2.5

AYFAATQFEPLAA [UNK K3A]
Loss of binding to DP*0402 (ratio of the IC50 values for the mutant peptide and for the UNK1 peptide) [1]: 1
Loss of binding to DP*0401 (ratio of the IC50 values for the mutant peptide and for the UNK1 peptide) [2]: 0.9

KYFAATQYEPLAA [UNK F10Y]
Loss of binding to DP*0402 (ratio of the IC50 values for the mutant peptide and for the UNK1 peptide) [1]: 3.4
Loss of binding to DP*0401 (ratio of the IC50 values for the mutant peptide and for the UNK1 peptide) [2]: 2.4

KYFKATQFEPLAA [UNK A6K]
Loss of binding to DP*0402 (ratio of the IC50 values for the mutant peptide and for the UNK1 peptide) [1]: 1
Loss of binding to DP*0401 (ratio of the IC50 values for the mutant peptide and for the UNK1 peptide) [2]: 1.6

KYFAALQFEPLAA [UNK T8L]
Loss of binding to DP*0402 (ratio of the IC50 values for the mutant peptide and for the UNK1 peptide) [1]: 2.6
Loss of binding to DP*0401 (ratio of the IC50 values for the mutant peptide and for the UNK1 peptide) [2]: 1.9

KYFAKTQFEPLAA [UNK A7K]
Loss of binding to DP*0402 (ratio of the IC50 values for the mutant peptide and for the UNK1 peptide) [1]: 1.2
Loss of binding to DP*0401 (ratio of the IC50 values for the mutant peptide and for the UNK1 peptide) [2]: 2

KYEAATQFEPLAA [UNK F5E]
Loss of binding to DP*0402 (ratio of the IC50 values for the mutant peptide and for the UNK1 peptide) [1]: 123
Loss of binding to DP*0401 (ratio of the IC50 values for the mutant peptide and for the UNK1 peptide) [2]: 117

KYFAATQLEPLAA [UNK F10L]
Loss of binding to DP*0402 (ratio of the IC50 values for the mutant peptide and for the UNK1 peptide) [1]: 6.7
Loss of binding to DP*0401 (ratio of the IC50 values for the mutant peptide and for the UNK1 peptide) [2]: 7.2

KAFAATQFEPLAA [UNK Y4A]
Loss of binding to DP*0402 (ratio of the IC50 values for the mutant peptide and for the UNK1 peptide) [1]: 0.9
Loss of binding to DP*0401 (ratio of the IC50 values for the mutant peptide and for the UNK1 peptide) [2]: 1.2

KYFAATQKEPLAA [UNK F10K]
Loss of binding to DP*0402 (ratio of the IC50 values for the mutant peptide and for the UNK1 peptide) [1]: 350
Loss of binding to DP*0401 (ratio of the IC50 values for the mutant peptide and for the UNK1 peptide) [2]: 420

KYFAATKFEPLAA [UNK Q9K]
Loss of binding to DP*0402 (ratio of the IC50 values for the mutant peptide and for the UNK1 peptide) [1]: 0.9
Loss of binding to DP*0401 (ratio of the IC50 values for the mutant peptide and for the UNK1 peptide) [2]: 1.6

KYAAATQFEPLAA [UNK F5A]
Loss of binding to DP*0402 (ratio of the IC50 values for the mutant peptide and for the UNK1 peptide) [1]: 5.7
Loss of binding to DP*0401 (ratio of the IC50 values for the mutant peptide and for the UNK1 peptide) [2]: 41
